The results in this text go back to article PMC6213047, “Design of Antibacterial Agents: Alkyl Dihydroxybenzoates against Xanthomonas citri subsp. citri” (International Journal of Molecular Sciences, 2018).

Where only a bound is given, the exact number is not on record here.

One data set relates to X. citri subsp. citri strain 306 (IBSBF 1594). Put plainly: MBC, REMA plates replicated to Petri dishes. It is filed as cell-based, Xanthomonas citri subsp. citri. As to conditions: Xanthomonas citri. The method, then: The minimal bactericidal concentration (MBC) was determined by observing the bacterial growth in Petri dishes transferred from the REMA plates.
(§1) The antibacterial activity of alkyl dihydroxybenzoates and the determination of minimum inhibition concentration (MIC) were performed by the fluorimetric method Resazurin Microtiter Assay (REMA) with some modifications. An overnight culture of X. citri subsp. citri strain 306 (IBSBF 1594) was grown in 20 mL in Nitrogen Yeast Glycerol (NYG) at 29 °C in constant agitation of 180–200 rpm. After 12 h, the Xcc inoculum was dispersed in NYG medium and distributed into a 96 well microtiter plate to a final volume of 100 μL per well (10^5 CFU per well). Stock solutions of tested compounds at 10 mg mL^−1 were prepared in dimethyl sulfoxide (DMSO) and dispersed in NYG medium to obtain 1% DMSO and the final compound concentration range of 0.78–100 μg mL^−1. The negative control was constituted of 100 μL culture medium. In addition, the copper oxychloride was tested as a comparison to alkyl dihydroxybenzoates and kanamycin (20 μg mL^−1), which was used as a control antibiotic. The plate was subsequently incubated at 29 °C for 12 h, and 15 μg mL^−1 freshly prepared resazurin solution in water was added to each well, and the plate was incubated for 2 h. The fluorescence was determined on a Synergy H1 (BioTek, Winooski, VT, USA) microplate reader using the excitation and emission filters at wavelengths of 530 and 590 nm respectively. After the REMA assay, the minimum bactericidal concentration (CBM) assay was performed using a 96-pin stainless steel plate replicator, accurately transferring the wells from the REMA plate to Petri dishes Petri dishes were incubated in oven B.O.D. at 29 °C for 24 to 48 h. The experiments were performed in triplicate.
As a reminder, the MBC is the lowest tested concentration that kills the bacteria rather than only halting them. `CCCCCCCCCCOC(=O)c1ccc(O)c(O)c1` [Compound 31]: the MBC turned out to be 100 µg/mL.

The same data set, now with this note: Xanthomonas citri; Petri dishes from REMA plates, 29 °C, 24 to 48 h; read-out: MBC.
As for `O=C(O)c1ccc(O)cc1O` [2,4 DHB acid, 2,4 dihydroxybenzoic acid, reference compound], the MBC was over 100 µg/mL.

Consider `O=C(O)c1cc(O)ccc1O` [2,5 DHB acid, 2,5 dihydroxybenzoic acid, reference compound], for which the MBC is over 100 µg/mL.

On to `O=C(O)c1ccc(O)c(O)c1` [3,4 DHB acid, 3,4 dihydroxybenzoic acid, reference compound], for which the MBC is over 100 µg/mL.

On to `CCOC(=O)c1ccc(O)cc1O` [Compound 1], for which the MBC was over 100 µg/mL.

With `CCCCOC(=O)c1ccc(O)cc1O` [Compound 2], the MBC is 50 µg/mL.

Take `CCCCCCOC(=O)c1ccc(O)cc1O` [Compound 3]: the MBC worked out at 50 µg/mL.

`CCCCCCCCOC(=O)c1ccc(O)cc1O` [Compound 5]: the MBC was over 100 µg/mL.

As for `CCCCCCCCCOC(=O)c1ccc(O)cc1O` [Compound 6], the MBC is over 100 µg/mL.

For `CCCCCCCCCCOC(=O)c1ccc(O)cc1O` [Compound 7], the MBC is over 100 µg/mL.

Regarding `CCCCCCCCCCCCOC(=O)c1ccc(O)cc1O` [Compound 8, dodecyl 2,4 dihydroxybenzoate], the MBC is over 100 µg/mL.

`CC(C)OC(=O)c1ccc(O)cc1O` [Compound 9]: the minimum bactericidal concentration (MBC) is over 100 µg/mL.

As to `O=C(OC1CCCC1)c1ccc(O)cc1O` [Compound 10], the minimal bactericidal concentration (MBC) is over 100 µg/mL.

`O=C(OC1CCCCC1)c1ccc(O)cc1O` [Compound 11]: the MBC is 100 µg/mL.

Take `CCOC(=O)c1cc(O)ccc1O` [Compound 13]: the MBC is over 100 µg/mL.

On to `CCCCOC(=O)c1cc(O)ccc1O` [Compound 14], for which the MBC is over 100 µg/mL.

Consider `CCCCCCOC(=O)c1cc(O)ccc1O` [Compound 15], for which the MBC turned out to be 50 µg/mL.

Another data set has the same test system. Nature of the data set: MIC by Resazurin Microtiter Assay (REMA). It is filed as cell-based, Xanthomonas citri subsp. citri. The conditions noted are these: Xanthomonas citri, 12 h, REMA, NYG medium, 29 °C. The method, then:
The antibacterial potential of carboxylic acids and their esters were compared to copper oxychloride (a commercial active often used to combat citrus canker). Minimal inhibitory concentration (MIC) values were determined by REMA assay, which measures cellular respiratory activity.
as §1
A general note: The colour change of resazurin is a common sign of viable cells or microbes.
By MIC is commonly meant the lowest concentration found to suppress growth. For `CCCCCCCCCCOC(=O)c1ccc(O)c(O)c1` [Compound 31], the MIC is over 100 µg/mL.

Staying with this data set, now noted: Xanthomonas citri, 12 h, REMA, NYG medium, 29 °C, read-out: MIC.
As to `O=C(O)c1ccc(O)cc1O` [2,4 DHB acid, 2,4 dihydroxybenzoic acid, reference compound], the MIC is over 100 µg/mL.

On to `O=C(O)c1cc(O)ccc1O` [2,5 DHB acid, 2,5 dihydroxybenzoic acid, reference compound], for which the MIC is over 100 µg/mL.

Regarding `O=C(O)c1ccc(O)c(O)c1` [3,4 DHB acid, 3,4 dihydroxybenzoic acid, reference compound], the MIC was over 100 µg/mL.

Take `CCOC(=O)c1ccc(O)cc1O` [Compound 1]: the MIC was over 100 µg/mL.

For `CCCCCCCCOC(=O)c1ccc(O)cc1O` [Compound 5], the MIC was over 100 µg/mL.

Take `CCCCCCCCCOC(=O)c1ccc(O)cc1O` [Compound 6]: the MIC was over 100 µg/mL.

Take `CCCCCCCCCCOC(=O)c1ccc(O)cc1O` [Compound 7]: the MIC was over 100 µg/mL.

As for `CCCCCCCCCCCCOC(=O)c1ccc(O)cc1O` [Compound 8, dodecyl 2,4 dihydroxybenzoate], the MIC is over 100 µg/mL.

`CC(C)OC(=O)c1ccc(O)cc1O` [Compound 9]: the MIC was over 100 µg/mL.

On to `O=C(OC1CCCC1)c1ccc(O)cc1O` [Compound 10], for which the MIC was over 100 µg/mL.

For `CCOC(=O)c1cc(O)ccc1O` [Compound 13], the MIC is over 100 µg/mL.

In the case of `CCCCOC(=O)c1cc(O)ccc1O` [Compound 14], the MIC is over 100 µg/mL.

Still in this data set, the particulars now being: Xanthomonas citri, 12 h, REMA, NYG medium, 29 °C, read-out: MIC in μM.
`O=C(O)c1ccc(O)cc1O` [2,4 DHB acid, 2,4 dihydroxybenzoic acid, reference compound]: the MIC was over 648 µM.

As to `O=C(O)c1cc(O)ccc1O` [2,5 DHB acid, 2,5 dihydroxybenzoic acid, reference compound], the MIC is over 648 µM.

As for `O=C(O)c1ccc(O)c(O)c1` [3,4 DHB acid, 3,4 dihydroxybenzoic acid, reference compound], the MIC is over 648 µM.

As to `CCOC(=O)c1ccc(O)cc1O` [Compound 1], the MIC was over 548 µM.

As to `CCCCOC(=O)c1ccc(O)cc1O` [Compound 2], the MIC was found to be 189 µM.

On to `CCCCCCOC(=O)c1ccc(O)cc1O` [Compound 3], for which the MIC stood at 84 µM.

In the case of `CCCCCCCCOC(=O)c1ccc(O)cc1O` [Compound 5], the MIC is over 375 µM.

For the compound `CCCCCCCCCOC(=O)c1ccc(O)cc1O` [Compound 6], the MIC was over 356 µM.

Regarding `CCCCCCCCCCOC(=O)c1ccc(O)cc1O` [Compound 7], the MIC was over 340 µM.

With `CCCCCCCCCCCCOC(=O)c1ccc(O)cc1O` [Compound 8, dodecyl 2,4 dihydroxybenzoate], the MIC is over 310 µM.

For `CC(C)OC(=O)c1ccc(O)cc1O` [Compound 9], the MIC is over 510 µM.

For `O=C(OC1CCCC1)c1ccc(O)cc1O` [Compound 10], the MIC is over 450 µM.

Turning to `O=C(OC1CCCCC1)c1ccc(O)cc1O` [Compound 11], the MIC was 171 µM.

Turning to `CCOC(=O)c1cc(O)ccc1O` [Compound 13], the MIC was over 549 µM.

Turning to `CCCCOC(=O)c1cc(O)ccc1O` [Compound 14], the MIC is over 475 µM.

Turning to `CCCCCCOC(=O)c1cc(O)ccc1O` [Compound 15], the MIC came out at 140 µM.

Still in this data set, the particulars now being: Xanthomonas citri, 12 h, read-out: MIC in μM, REMA, NYG medium, 29 °C, 12 h.
In the case of `CCCCCCCCCCOC(=O)c1ccc(O)c(O)c1` [Compound 31], the MIC was over 340 µM.

Tested on in another data set: not listed separately
Nature of the data set: Partition coefficient log Po/w by HPLC (OECD 117). It is filed as physicochemical. The conditions noted are these: HPLC method, OECD 117, methanol:water 3:1. On the procedure: The analyses were performed with the use of an isocratic flow in methanol: water (3:1) at 1.0 mL min^−1. We injected 20.0 μL and analyses were performed at 254 nm. We used as reference compounds thiourea, phenol, acetophenone, benzoic acid, benzene, toluene, biphenyl, fluoranthene and triphenylamine in order to construct the curve log K × log Po/w. The lipophilicity of alkyl dihydroxybenzoates was determined from their retention times and interpolation in linearity curve log K × log Po/w. We performed the analyses in duplicate.
Usually chromatographic logP stands for a lipophilicity value derived from retention on a column. A low value points to a more hydrophilic compound. On to `O=C(O)c1ccc(O)cc1O` [2,4 DHB acid, 2,4 dihydroxybenzoic acid, reference compound], for which the chromatographic logP stood at 2.6.

For the compound `O=C(O)c1cc(O)ccc1O` [2,5 DHB acid, 2,5 dihydroxybenzoic acid, reference compound], the chromatographic logP is 2.8.

As for `O=C(O)c1ccc(O)c(O)c1` [3,4 DHB acid, 3,4 dihydroxybenzoic acid, reference compound], the chromatographic logP amounted to 0.8.

Regarding `CCOC(=O)c1ccc(O)cc1O` [Compound 1], the chromatographic logP amounted to 2.8.

On to `CCCCOC(=O)c1ccc(O)cc1O` [Compound 2], for which the chromatographic logP was found to be 3.9.

As for `CCCCCCOC(=O)c1ccc(O)cc1O` [Compound 3], the chromatographic logP was 5.

`CCCCCCCCOC(=O)c1ccc(O)cc1O` [Compound 5] yielded a chromatographic logP of 6.1.

`CCCCCCCCCOC(=O)c1ccc(O)cc1O` [Compound 6]: the chromatographic logP was determined as 6.2.

In the case of `CCCCCCCCCCOC(=O)c1ccc(O)cc1O` [Compound 7], the chromatographic logP turned out to be 6.9.

`CCCCCCCCCCCCOC(=O)c1ccc(O)cc1O` [Compound 8, dodecyl 2,4 dihydroxybenzoate] had a chromatographic logP of 7.

As to `CC(C)OC(=O)c1ccc(O)cc1O` [Compound 9], the chromatographic logP is 2.6.

`O=C(OC1CCCC1)c1ccc(O)cc1O` [Compound 10] returned a chromatographic logP of 2.2.

With `O=C(OC1CCCCC1)c1ccc(O)cc1O` [Compound 11], the chromatographic logP turned out to be 4.

`CCOC(=O)c1cc(O)ccc1O` [Compound 13] showed a chromatographic logP of 2.4.

Consider `CCCCOC(=O)c1cc(O)ccc1O` [Compound 14], for which the chromatographic logP was determined as 3.4.

`CCCCCCOC(=O)c1cc(O)ccc1O` [Compound 15] yielded a chromatographic logP of 4.5.
